Laboratory results taken from article PMC9698730 (Molecules, 2022).
Values joined by “and” are separate entries in the source; they are usually repeats but may differ in a detail not shown here. Equal entries are not always repeated. “Also recorded” adds a separate entry of the source. Where two headings read alike, the source gives them in different places.

What was measured:
[1] = system: FL; format: binding, SARS-CoV-2; settings: for Size (nm) Intensity / Size (nm) Volume: pH 7.9
[2] = system: RNA-FL complex; format: binding, SARS-CoV-2; settings: for competition with RNA / nucleic acids binding to FL: DLS, in words
Experimental: To further address whether the ligands may modify the oligomeric status of the FL protein, we performed dynamic light scattering experiments. […] We then tested whether ligand binding to FL could be competitive with nucleic acids binding.
(§1) The experiments were performed on a Malvern nanosizer apparatus. The temperature was set at 20 °C, and 10 scans with a duration of 10 s each were acquired in duplicate for each time and sample. The size distribution in the intensity of the scattered light was obtained using the Cumulants method from the instrumental software, yielding the hydrodynamic diameter. The N NTD concentration was in the range of 40–60 μM, the FL concentration was in the range of 1 to 10 µM in 20 mM Tris buffer at pH = 7.9 containing 100 mM NaCl. The melting experiments were performed at a heating rate of 1 °C/min over the range 30 °C to 65 °C in sealed disposable cuvettes. The apparent melting temperature, Tm, was determined by the first derivative of the melting curve.

[3] = system: viral replication; settings: cited from earlier work
[4] = system: patients hospitalized for mild and moderate COVID-19; settings: human, in vivo; cited from earlier work
[5] = target: T1, NTD wt (Severe acute respiratory syndrome coronavirus 2, UniProt P0DTC9); settings: cited from earlier work
[6] = system: SARS-CoV-2; settings: cited from earlier work
[7] = system: model of reconstituted lung epithelium; settings: cited from earlier work
[8] = system: FL; format: binding
[9] = target: T1, NTD wt; format: binding
[10] = system: DNA-FL complex; experiment: Dynamic light scattering, competition with DNA binding to FL; design: species or system SARS-CoV-2; settings: for Size, Intensity: percentage in parentheses / Size, Volume: percentage in parentheses / Size (nm) Volume / Size (nm) Intensity: DNA + ligand, 4 µM, FL 4 µM; for Size (nm) Volume: without ligand 15.7 ± 1.2; for Size (nm) Intensity: without ligand 25.3 ± 3.1
Experimental: To further address whether the ligands may modify the oligomeric status of the FL protein, we performed dynamic light scattering experiments. FL (2 µM) presented a main peak at 12.0 ± 0.6 nm in volume (14 nm in intensity); the size of the complex decreased to 10.3 and 7.8 ± 0.3 nm upon addition of 2 µM and 6 µM enkephalin, respectively (Figure 6D). […] We then tested whether ligand binding to FL could be competitive with nucleic acids binding.
as §1

Row | Compound | Size, Intensity: percentage in parentheses [1] | Size, Volume: percentage in parentheses [1] | effect on size (oligomeric status) of FL [1] | Size (nm) Intensity [1] | Size (nm) Volume [1] | competition with RNA / nucleic acids binding to FL [2] | effect on viral replication ([3]; ref [17],[18],[34],[35]) | also measured
1 | COc1ccc2c(c1)c(CC(=O)O)c(C)n2C(=O)c1ccc(Cl)cc1 [Indomethacin, indomethacin] | 11.0 ± 0.4 (30%) 6.7 ± 0.3 (60%) | 10.3 ± 0.5 (100%) 6.3 ± 0.4 (96%) | a larger decrease | 11.0 ± 0.4 (30%) 6.7 ± 0.3 (60%) nm | 10.3 ± 0.5 (100%) 6.3 ± 0.4 (96%) nm | consistent with a competition | decrease viral replication | patient recovery [4]: helped the patients to recover
2 | COc1ccc2cc([C@H](C)C(=O)O)ccc2c1 [Naproxen, naproxen] | 12.2 ± 0.5 (40%) 8.7 ± 0.3 (60%) | 11.3 ± 0.4 (99%) 8.9 ± 0.3 (96%) | the same trend was observed | 12.2 ± 0.5 (40%) 8.7 ± 0.3 (60%) nm | 11.3 ± 0.4 (99%) 8.9 ± 0.3 (96%) nm | – | – | binding to N-terminal domain in vitro [5]: bound to SARS-CoV-2 N-terminal domain (NTD) in vitro; viral load of infected cells [6]: reduced the viral load of infected cells; effect on viral replication [3]: decrease viral replication; protection of lung cells against viral injury [7]: protected lung cells against viral injury; replication and inflammation in reconstituted lung epithelium [7]: inhibited replication and reduced inflammation
3 | Dihydrofolate [DHF] | – | – | – | – | – | consistent with a competition | decrease viral replication | binding to FL by SPR, in words [8]: binding of DHF to the full-length protein was smaller; Kd ([9]; SPR, NTD, ligand range 0.3–10.0 µM, 20 mM HEPES, 100 mM NaCl, 0.05% Tween): ~1000 nM and 1000 nM; effect on viral replication ([3]; ref [35]): reduction of viral replication
4 | Hemin | – | – | – | – | – | – | decrease viral replication | effect on viral replication ([3]; hemin binding to N, ref [32]): reduce viral replication
5 | Leu-enkephalin | 12.6 ± 0.6 (31%) 8.7 ± 0.2 (40%) | 11.3 ± 0.6 (96%) 8.0 ± 0.3 (100%) | decreased its size as compared to the size of N alone | 12.6 ± 0.6 (31%) 8.7 ± 0.2 (40%) nm | 11.3 ± 0.6 (96%) 8.0 ± 0.3 (100%) nm | competitive with nucleic acids binding to FL; also recorded: consistent with a competition | – | effect on size of N-DNA complex, in words ([10]; DLS, Figure 6E): the size of the N-DNA complex was reduced; Size, Intensity: percentage in parentheses [10]: 89%; Size, Volume: percentage in parentheses [10]: 99%; Size (nm) Volume [10]: 9.0 ± 1.7 nm; Size (nm) Intensity [10]: 10.5 ± 1.2 nm
6 | RPKPQQF-OH [Substance P (1-7), Substance P (1-7) RPKPQQF-OH] | 10.3 ± 0.6 (50%) 8.0 ± 1.0 (76%) | 9.5 ± 0.6 (98%) 7.2 ± 1.1 (99%) | a larger decrease | 10.3 ± 0.6 (50%) 8.0 ± 1.0 (76%) nm | 9.5 ± 0.6 (98%) 7.2 ± 1.1 (99%) nm | competitive with nucleic acids binding to FL; also recorded: consistent with a competition | – | Size, Intensity: percentage in parentheses ([2]; RNA + ligand, 4 µM, FL 4 µM): 75%; Size, Volume: percentage in parentheses ([2]; RNA + ligand, 4 µM, FL 4 µM): 97%; Size (nm) Volume ([2]; RNA + ligand, 4 µM, FL 4 µM, without ligand 15.1 ± 1.1): 11.3 ± 0.6 nm; Size (nm) Intensity ([2]; RNA + ligand, 4 µM, FL 4 µM, without ligand 21.5 ± 2.0): 16.1 ± 0.6 nm; binding to FL by SPR, in words [8]: bound the N FL protein as measured by SPR; also recorded: observed; binding to NTD by SPR, in words [9]: observed; Size, Intensity: percentage in parentheses [10]: 70%; Size, Volume: percentage in parentheses [10]: 91%; Size (nm) Volume [10]: 10.1 ± 0.6 nm; Size (nm) Intensity [10]: 13.8 ± 0.6 nm
7 | tetrahydrofolate [THF] | – | – | – | – | – | – | – | effect on viral replication ([3]; ref [35]): reduction of viral replication
